Results on five compounds are retold here after patent US20170226145A1, “METHODS OF EXTRACTION AND PURIFICATION FROM STEVIA REBAUDIANA OF COMPOSITIONS WITH ENHANCED REBAUDIOSIDE-M CONTENT, USES OF SAID COMPOSITION AND NATURAL SWEETENER COMPOSITIONS WITH SAID COMPOSITION” (GLG LIFE TECH CORPORATION, priority 2014, published 2017).

The nature of data set [1]: Sweetness relative to sucrose (general statements, Table 1). From the text:
The physical and sensory properties are well studied generally only for Stevioside (STV) and Rebaudioside A. The sweetness potency of Stevioside is around 210 times higher than sucrose, Rebaudioside A is between 200 and 400 times, and Rebaudioside C is between 40 and 50 times and Dulcoside A around 30 times. Traditionally, Rebaudioside A is considered to have the most favorable sensory attributes of the four major steviol glycosides (see Table 1): […]

A short description of data set [2]: Solubility in water and solvents. The class given is physicochemical.
The next data set is described as follows: Heat and pH stability. Conditions: RM obtained in accordance with the invention. The data set is classed as physicochemical.
For data set [3] the following is noted: glycosides of wild type stevia; cited from earlier work.
Data set [4] is described as follows: Example 8 sample test results of sweetener solutions (Table 2). From the text: Reb M 95, Reb C 85, Reb D 95, Reb A 97, Sucrose, New Blends RA97 and RM95, New Blends RA97, RM95 and RC85, New Blends RM95, RA97 and Sucrose, New Blends RM95, RA97 and Erythritol, Purified Water. [table]

Regarding `C=C1C[C@@]23CC[C@H]4[C@@](C)(CCC[C@@]4(C)C(=O)O[C@@H]4O[C@H](CO)[C@@H](O)[C@H](O[C@@H]5O[C@H](CO)[C@@H](O)[C@H](O)[C@H]5O)[C@H]4O[C@@H]4O[C@H](CO)[C@@H](O)[C@H](O)[C@H]4O)[C@@H]2CC[C@]1(O[C@@H]1O[C@H](CO)[C@@H](O)[C@H](O[C@@H]2O[C@H](CO)[C@@H](O)[C@H](O)[C@H]2O)[C@H]1O[C@@H]1O[C@H](CO)[C@@H](O)[C@H](O)[C@H]1O)C3` [RM, Rebaudioside M], the “times sweeter than sugar” value in data set [1] (compared to a 10% sucrose solution) is given as “about 200 times”. Besides, in data set [1] (purified Reb M of the invention), the “times sweetness of sucrose” value is “more than 300 times”. In addition, in data set [2], the “solubility in acetone, benzene, chloroform, and ether” value is on record as “insoluble”; the “solubility in diluted solutions of methanol, ethanol, n-propanol, and isopropanol” value is on record as “soluble”. For the same compound, the “solubility of RM in water” value in data set [2] (increases with an increase in temperature) is on record as “around 0.3%”. For the same compound, the “heat and pH stability” value in “Heat and pH stability” is “heat and pH-stable”.

As for `C=C1C[C@@]23CC[C@H]4[C@@](C)(CCC[C@@]4(C)C(=O)O[C@@H]4O[C@H](CO)[C@@H](O)[C@H](O)[C@H]4O)[C@@H]2CC[C@]1(O[C@@H]1O[C@H](CO)[C@@H](O)[C@H](O[C@@H]2O[C@H](CO)[C@@H](O)[C@H](O)[C@H]2O)[C@H]1O[C@@H]1O[C@H](CO)[C@@H](O)[C@H](O)[C@H]1O)C3` [Rebaudioside A], the “sweetness, × of sugar” value in data set [3] is on record as 350-450 × of sugar.

`C=C1C[C@@]23CC[C@H]4[C@@](C)(CCC[C@@]4(C)C(=O)O[C@@H]4O[C@H](CO)[C@@H](O)[C@H](O)[C@H]4O)[C@@H]2CC[C@]1(O[C@@H]1O[C@H](CO)[C@@H](O)[C@H](O)[C@H]1O[C@@H]1O[C@H](CO)[C@@H](O)[C@H](O)[C@H]1O)C3` [Stevioside]: the “sweetness, × of sugar” value in data set [3] is 250-300 × of sugar.

In turn, `OC[C@H]1O[C@@](CO)(O[C@H]2O[C@H](CO)[C@@H](O)[C@H](O)[C@H]2O)[C@@H](O)[C@@H]1O` [Sucrose] yielded a Content/100 ml in data set [4] (amount per 100 ml in the solution that has sweetness 9° (9 g sucrose)) of 9 g. Also, the “Sweetness of Solution” value in data set [4] (solution at the Content/100 ml of Table 2) turned out to be 9°.

With Rebaudioside C, the “sweetness, × of sugar” value in data set [3] was 40-50 × of sugar.
